In ChEMBL document CHEMBL5385844, “Discovery of novel imidazole chemotypes as isoform-selective JNK3 inhibitors for the treatment of Alzheimer's disease” (Eur J Med Chem, 2023):
pIC50: −log10 of the molar value. The source made the active and inactive calls. No cut-off for these calls is given here.

Assays:
[1] = biological target: T1, Mitogen-activated protein kinase 8 (Homo sapiens, UniProt P45983); test: Inhibition of human JNK1 incubated for 40 mins in presence of ATP and [gamma33P-ATP] by scintillation counting method
[2] = Efflux ratio of apparent permeability basolateral to apical side over apical to basolateral side in human Caco-2 cells at 10 uM incubated for 1 hr by LC-MS/MS analysis; type: ADME, cell-based
Mus musculus [3] = test: Anti-alzheimer activity against homozygous 3 x Tg mouse model assessed as escape latency time at 60 mg/kg, po administered daily for 2 months and measured after 60 days of treatment by Passive avoidance test (reference value: 43.44 +/- 7.35 sec); type: functional; conditions: 1460 h
Mus musculus [4] = test: Anti-alzheimer activity against homozygous 3 x Tg mouse model assessed as spontaneous alteration at 30 mg/kg, po administered daily for 2 months and measured after 57 days of treatment by Y-maze test (reference value: 46.81 +/- 2.76%); type: functional; conditions: 1460 h
[5] = Half life in Sprague-Dawley rat at 3 mg/kg, po measured upto 24 hrs by UPLC analysis; type: ADME, organism-based; conditions: in vivo
[6] = biological target: Mitogen-activated protein kinase 10 (Rattus norvegicus) (UniProt P49187); test: Inhibition of JNK3 in anisomycin-induced c-Jun phosphorylation in primary rat cortex neuron assessed as decrease in c-Jun phosphorylation at 20 uM pretreated for 90 mins followed by treated with anisomycin further incubated for 40 mins by Western blot analysis; type: cell-based; conditions: Primary cortical neuron
Mus musculus [7] = test: Anti-alzheimer activity against APP/PS1 dE9 double transgenic mouse model assessed as escape latency time at 10 mg/kg, po administered 3 times/week for 1 month and measured after 27 days of treatment by Passive avoidance test (reference value: 18.5 +/- 2.3 sec); type: functional; conditions: time 27 day
[8] = biological target: Glycogen synthase kinase-3 alpha (Homo sapiens, UniProt P49840); test: Inhibition of human GSK3alpha assessed as incorporation of 33P-ATP
[9] = biological target: Mitogen-activated protein kinase 9 (Homo sapiens, UniProt P45984); test: Inhibition of human JNK2alpha1 assessed as incorporation of 33P-ATP
[10] = AUC in Sprague-Dawley rat at 3 mg/kg, po measured upto 24 hrs by UPLC analysis; type: ADME, organism-based; parameters: time < 24 hrs, dose 3 mg/kg, route po; conditions: in vivo
[11] = Oral bioavailability in Sprague-Dawley rat at 3 mg/kg measured upto 24 hrs by UPLC analysis; type: ADME, organism-based; conditions: in vivo
[12] = Plasma concentration in Sprague-Dawley rat at 30 mg/kg, po measured at Tmax; type: ADME, organism-based
[13] = Toxicity in APP/PS1 mouse assessed as abnormal symptoms at 10 mg/kg, po treated 3 times/week for 1 month; type: organism-based; conditions: in vivo, 730 h, time 1 months
Cortical neurone = test: Neuroprotective activity against Amyloid beta (1 to 42)-induced toxicity in rat cortical neuron assessed as cell viability at 20 uM measured after 24 hrs by MTT assay; type: functional; conditions: read-out: Activity
[14] = biological target: Mitogen-activated protein kinase 10 (Rattus norvegicus) (UniProt P49187); test: Inhibition of JNK3 in Amyloid beta (1 to 42)-induced c-Jun phosphorylation in primary rat cortex neuron assessed as decrease in c-Jun phosphorylation incubated for 24 hrs by Western blot analysis; type: cell-based; conditions: Primary cortical neuron, dose 10-20 µM
[15] = biological target: Glycogen synthase kinase-3 beta (Homo sapiens, UniProt P49841); test: Inhibition of human GSK3beta assessed as incorporation of 33P-ATP
[16] = biological target: T1, Mitogen-activated protein kinase 8; test: Inhibition of human JNK1alpha1 assessed as incorporation of 33P-ATP
[17] = Brain to Plasma ratio in Sprague-Dawley rat at 30 mg/kg, po measured at Tmax; type: ADME, organism-based; conditions: read-out: BPR
Mus musculus [18] = test: Anti-alzheimer activity against APP/PS1 dE9 double transgenic mouse model assessed as escape latency time at 30 mg/kg, po administered 3 times/week for 1 month and measured after 27 days of treatment by Passive avoidance test (reference value: 18.5 +/- 2.3 sec); type: functional; conditions: time 27 day
[19] = biological target: Mitogen-activated protein kinase 10 (Rattus norvegicus) (UniProt P49187); test: Inhibition of JNK3 mediated anisomycin-induced APP phosphorylation in rat cortical neurons at 10 to 20 uM incubated for 24 hrs by Western blot analysis; type: cell-based; conditions: Cortical neuron, dose 10-20 µM
[20] = biological target: T2, MAPK/MAK/MRK overlapping kinase (Homo sapiens, UniProt Q9UQ07); test: Inhibition of MOK (unknown origin) assessed as incorporation of 33P-ATP
T2 sequence (Q9UQ07 whole entry): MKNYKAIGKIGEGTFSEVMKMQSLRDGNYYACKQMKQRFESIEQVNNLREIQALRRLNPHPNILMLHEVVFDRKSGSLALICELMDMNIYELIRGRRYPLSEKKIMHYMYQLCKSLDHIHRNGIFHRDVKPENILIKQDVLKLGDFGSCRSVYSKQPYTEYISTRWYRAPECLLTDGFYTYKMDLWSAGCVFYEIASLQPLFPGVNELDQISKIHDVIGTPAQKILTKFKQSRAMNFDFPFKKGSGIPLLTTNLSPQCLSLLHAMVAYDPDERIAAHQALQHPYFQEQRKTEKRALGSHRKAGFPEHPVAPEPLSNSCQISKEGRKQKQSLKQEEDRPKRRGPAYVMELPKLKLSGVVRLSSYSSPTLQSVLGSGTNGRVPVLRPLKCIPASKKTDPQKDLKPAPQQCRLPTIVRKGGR

[21] = Apparent permeability across apical to basolateral side in human Caco-2 cells at 10 uM incubated for 1 hr by LC-MS/MS analysis; type: ADME, cell-based
Mus musculus [22] = test: Anti-alzheimer activity against homozygous 3 x Tg mouse model assessed as spontaneous alteration at 60 mg/kg, po administered daily for 2 month and measured after 57 days of treatment by Y-maze test (reference value: 46.81 +/- 2.76%); type: functional; conditions: time 2 months, 1460 h
[23] = Apparent permeability across basolateral to apical side in human Caco-2 cells at 10 uM incubated for 1 hr by LC-MS/MS analysis; type: ADME, cell-based
Mus musculus [24] = test: Anti-alzheimer activity against homozygous 3 x Tg mouse model assessed as time spent in platform quadrant at 60 mg/kg, po administered daily for 2 months and measured after 27 days of treatment by Morris water maze test (reference value: 15.68 +/- 1.65 sec); type: functional; conditions: 1460 h
[25] = Half life in Sprague-Dawley rat at 1 mg/kg, iv measured upto 24 hrs by UPLC analysis; type: ADME, organism-based; conditions: in vivo
[26] = Tmax in Sprague-Dawley rat at 3 mg/kg, po measured upto 24 hrs by UPLC analysis; type: ADME, organism-based; conditions: in vivo
Mus musculus [27] = test: Anti-alzheimer activity against homozygous 3 x Tg mouse model assessed as escape latency time at 30 mg/kg, po administered daily for 2 months and measured after 60 days of treatment by Passive avoidance test (reference value: 43.44 +/- 7.35 sec); type: functional; conditions: 1460 h
[28] = AUC in Sprague-Dawley rat at 1 mg/kg, iv measured upto 24 hrs by UPLC analysis; type: ADME, organism-based; parameters: dose 1 mg/kg, time < 24 hrs, route iv; conditions: in vivo

Chain of Mitogen-activated protein kinase 10 (Rattus norvegicus) (P49187 whole entry): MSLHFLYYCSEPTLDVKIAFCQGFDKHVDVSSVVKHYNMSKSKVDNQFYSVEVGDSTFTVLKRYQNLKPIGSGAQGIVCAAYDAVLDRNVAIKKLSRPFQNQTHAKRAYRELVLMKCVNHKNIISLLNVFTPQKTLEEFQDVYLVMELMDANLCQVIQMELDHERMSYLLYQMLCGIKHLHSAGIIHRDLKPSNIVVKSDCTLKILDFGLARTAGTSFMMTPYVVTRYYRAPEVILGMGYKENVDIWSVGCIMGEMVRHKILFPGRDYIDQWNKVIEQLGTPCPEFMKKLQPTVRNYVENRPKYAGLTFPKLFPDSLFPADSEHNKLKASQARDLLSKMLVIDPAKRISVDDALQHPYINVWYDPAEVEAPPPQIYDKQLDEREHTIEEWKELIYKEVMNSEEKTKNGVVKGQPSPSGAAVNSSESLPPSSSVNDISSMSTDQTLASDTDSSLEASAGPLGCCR
T1 sequence (P45983 whole entry): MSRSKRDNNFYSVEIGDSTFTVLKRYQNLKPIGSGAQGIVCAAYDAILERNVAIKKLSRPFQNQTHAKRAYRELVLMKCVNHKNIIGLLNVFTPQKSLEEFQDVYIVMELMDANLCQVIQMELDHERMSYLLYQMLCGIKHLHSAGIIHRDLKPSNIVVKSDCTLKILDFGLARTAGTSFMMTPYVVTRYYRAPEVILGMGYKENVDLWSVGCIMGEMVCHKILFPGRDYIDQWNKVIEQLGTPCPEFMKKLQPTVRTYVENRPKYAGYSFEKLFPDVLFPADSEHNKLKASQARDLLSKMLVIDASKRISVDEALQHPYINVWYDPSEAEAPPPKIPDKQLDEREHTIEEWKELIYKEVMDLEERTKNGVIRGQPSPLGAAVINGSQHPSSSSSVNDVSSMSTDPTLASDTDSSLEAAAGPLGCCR
Chain of Mitogen-activated protein kinase 9 (P45984 whole entry): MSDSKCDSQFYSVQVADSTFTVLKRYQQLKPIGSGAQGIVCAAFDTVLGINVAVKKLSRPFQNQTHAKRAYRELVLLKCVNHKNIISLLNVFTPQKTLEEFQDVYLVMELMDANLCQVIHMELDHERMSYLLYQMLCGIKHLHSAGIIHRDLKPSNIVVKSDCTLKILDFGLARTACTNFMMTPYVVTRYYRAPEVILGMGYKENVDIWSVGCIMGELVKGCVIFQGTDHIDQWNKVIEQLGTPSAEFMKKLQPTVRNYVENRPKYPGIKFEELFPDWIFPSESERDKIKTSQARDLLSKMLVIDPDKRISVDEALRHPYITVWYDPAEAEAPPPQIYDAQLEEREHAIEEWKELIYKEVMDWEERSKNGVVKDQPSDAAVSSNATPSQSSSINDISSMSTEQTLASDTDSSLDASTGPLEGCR
Chain of Glycogen synthase kinase-3 beta (P49841 whole entry): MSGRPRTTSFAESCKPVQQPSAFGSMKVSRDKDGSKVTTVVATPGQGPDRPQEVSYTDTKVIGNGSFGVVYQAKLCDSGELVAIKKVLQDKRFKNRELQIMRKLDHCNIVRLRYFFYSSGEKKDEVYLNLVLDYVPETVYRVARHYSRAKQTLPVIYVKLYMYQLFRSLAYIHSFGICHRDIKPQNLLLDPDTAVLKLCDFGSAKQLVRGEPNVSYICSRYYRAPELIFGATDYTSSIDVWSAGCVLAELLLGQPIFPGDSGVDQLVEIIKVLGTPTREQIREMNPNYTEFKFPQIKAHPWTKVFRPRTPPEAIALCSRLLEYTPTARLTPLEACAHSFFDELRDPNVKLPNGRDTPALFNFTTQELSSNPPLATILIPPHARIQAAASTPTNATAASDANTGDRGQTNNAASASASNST
Chain of Glycogen synthase kinase-3 alpha (P49840 whole entry): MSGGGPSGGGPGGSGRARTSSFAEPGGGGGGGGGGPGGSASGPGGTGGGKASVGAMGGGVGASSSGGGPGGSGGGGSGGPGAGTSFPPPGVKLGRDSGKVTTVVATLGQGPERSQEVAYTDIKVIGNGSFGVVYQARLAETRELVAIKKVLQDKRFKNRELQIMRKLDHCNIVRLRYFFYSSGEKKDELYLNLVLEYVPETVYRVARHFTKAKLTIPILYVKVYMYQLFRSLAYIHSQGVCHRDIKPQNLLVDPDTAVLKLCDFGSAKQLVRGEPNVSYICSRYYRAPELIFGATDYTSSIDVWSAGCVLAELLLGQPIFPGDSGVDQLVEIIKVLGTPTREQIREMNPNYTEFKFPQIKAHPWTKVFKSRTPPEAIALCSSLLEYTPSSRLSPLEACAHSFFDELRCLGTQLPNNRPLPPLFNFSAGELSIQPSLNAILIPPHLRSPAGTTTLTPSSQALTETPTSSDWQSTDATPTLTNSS

In the case of `N#CCc1cnc(-c2ccc3ccccc3c2)n1-c1ccnc(N[C@H]2CCCN(C(=O)C3CC3)C2)n1`, the pIC50 [1] was 6.53, the efflux ratio at 1 h, 10 µM [2] was 1.92 and the Time (Mus musculus [3]) was 59.82 s. The Activity (Mus musculus [4]) was 50.97%, the half-life [5] was 20.4 min and the Activity [6] was “Active”. It also gave a Time (Mus musculus [7]) of 31.7 s, a pIC50 [8] of 5.24 and a pIC50 [9] of 6.47. The AUC at 24 h [10] was 338 ng·h/mL, the bioavailability [11] was 15.7% and the Cmax [12] was 1080 ng/mL. For the same compound, the Activity [13] was “Non-Toxic”, the viability at 20 µM (Cortical neurone) was 72.6% and the Activity [14] was “Dose-Dependent Effect”. It also gave a pIC50 [15] of 4.93, a pIC50 [16] of 6.07 and a Kp [17] of 0.02. The Time (Mus musculus [18]) was 49.5 s, the inhibition [19] was “Active” and the pIC50 [20] was 5.93. It also gave a Papp A→B at 1 h, 10 µM [21] of 13.7 ×10⁻⁶ cm/s, an Activity (Mus musculus [22]) of 56.55% and a Papp B→A at 1 h, 10 µM [23] of 26.4 ×10⁻⁶ cm/s. It also gave a Time (Mus musculus [24]) of 15.55 s, a half-life [25] of 13.2 min and a Tmax [26] of 37.8 min. It also gave a Time (Mus musculus [27]) of 54.09 s and an AUC at 24 h [28] of 718 ng·h/mL.
